# Test results reported in paper PMC6691761, “Potential multifunctional agents with anti-hepatoma and anti-inflammation properties by inhibiting NF-кB activation” (Journal of Enzyme Inhibition and Medicinal Chemistry, 2019).
# Test system: human liver hepatocellular carcinoma cell line (HepG2)
# Test: Cytotoxicity, MTT assay, HepG2
# Assay type: cell-based
# Conditions: MTT, 24 h
# Description: (§1) Compounds 83–102 were screened against human neoplastic cell lines, such as human breast cancer cells (MCF-7), human colon cancer cells (HCT116), human lung carcinoma cells (A549), human gastric adenocarcinoma cells (SGC7901), human liver hepatocellular carcinoma cell line (HepG2), human cervical carcinoma cells (HeLa), human acute mononuclear granulocyte leukaemia (THP-1), and human normal hepatic cell line (LO2) using modified MTT assay. All the cells were obtained from the American Type Culture Collection (ATCC, Manassas, VA). The cells were cultured in DMEM or 1640. Positive controls (Doxorubicin (DOX) and Curcumin) and BAPs were initially dissolved in dimethyl sulphoxide (DMSO). Experimental concentration of DMSO was always 0.1% (v/v). The concentrations of BAPs and positive controls were 50, 20, 10, 5, 2.5, 1, 0.5, 0.1, 0.05, and 0.01 μg/mL.
# (§2) The cells (1 × 10^4 cells/well) were seeded in a 96-well plate and incubated for 24 h. Cells treated with serial concentrations of drugs were incubated for another 24 h. After the media removed, 20 μL of MTT (5 mg/mL) solution was added and incubated for 4 h at 37 °C. The MTT solution was removed and then 150 μL of DMSO was added. The optical density was measured with a multi-well plate reader (TECAN, Mӓnnedorf, Switzerland) at 570 nm. The results are expressed as a decrease in the cell viability (%) in comparison to untreated controls. The concentration of each compound was examined in triplicate, and the IC50 values are expressed in Table 1.
row,Compound,IC50
1,CN1CC(=Cc2cccc(N=Cc3cc([N+](=O)[O-])ccc3F)c2)C(=O)C(=Cc2ccccc2F)C1 [Compound 97],4.2 ± 0.5 µM
2,CN1CC(=Cc2cccc(N=Cc3cc(F)ccc3O)c2)C(=O)C(=Cc2ccccc2F)C1 [Compound 93],2.2 ± 0.2 µM
3,CN1CC(=Cc2cccc(N=Cc3cc(O)ccc3O)c2)C(=O)C(=Cc2ccccc2F)C1 [Compound 99],8.2 ± 0.1 µM
4,COc1ccccc1/C=C1\CN(C)C/C(=C\c2cc(OC)c(OC)c(OC)c2)C1=O [Compound 89],4.3 ± 0.1 µM

# Same assay, conditions: quotient of IC50 towards LO2 cells
row,Compound,HepG2 SI (selectivity index)
1,CN1CC(=Cc2cccc(N=Cc3cc([N+](=O)[O-])ccc3F)c2)C(=O)C(=Cc2ccccc2F)C1 [Compound 97],2.8
2,CN1CC(=Cc2cccc(N=Cc3cc(F)ccc3O)c2)C(=O)C(=Cc2ccccc2F)C1 [Compound 93],6.9
3,CN1CC(=Cc2cccc(N=Cc3cc(O)ccc3O)c2)C(=O)C(=Cc2ccccc2F)C1 [Compound 99],1.9
4,COc1ccccc1/C=C1\CN(C)C/C(=C\c2cc(OC)c(OC)c(OC)c2)C1=O [Compound 89],3.2

# Test system: human cervical carcinoma cells (HeLa)
# Test: Cytotoxicity, MTT assay, HeLa
# Assay type: cell-based
# Conditions: MTT, 24 h
# Description: as §1, §2
row,Compound,IC50
1,CN1CC(=Cc2cccc(N=Cc3cc([N+](=O)[O-])ccc3F)c2)C(=O)C(=Cc2ccccc2F)C1 [Compound 97],5.1 ± 1.2 µM
2,CN1CC(=Cc2cccc(N=Cc3cc(F)ccc3O)c2)C(=O)C(=Cc2ccccc2F)C1 [Compound 93],3 ± 0.1 µM
3,CN1CC(=Cc2cccc(N=Cc3cc(O)ccc3O)c2)C(=O)C(=Cc2ccccc2F)C1 [Compound 99],15.3 ± 1.1 µM
4,COc1ccccc1/C=C1\CN(C)C/C(=C\c2cc(OC)c(OC)c(OC)c2)C1=O [Compound 89],5.3 ± 0.4 µM

# Same assay, conditions: quotient of IC50 towards LO2 cells
row,Compound,HeLa SI (selectivity index)
1,CN1CC(=Cc2cccc(N=Cc3cc([N+](=O)[O-])ccc3F)c2)C(=O)C(=Cc2ccccc2F)C1 [Compound 97],2.3
2,CN1CC(=Cc2cccc(N=Cc3cc(F)ccc3O)c2)C(=O)C(=Cc2ccccc2F)C1 [Compound 93],5.0
3,CN1CC(=Cc2cccc(N=Cc3cc(O)ccc3O)c2)C(=O)C(=Cc2ccccc2F)C1 [Compound 99],1.0
4,COc1ccccc1/C=C1\CN(C)C/C(=C\c2cc(OC)c(OC)c(OC)c2)C1=O [Compound 89],2.6

# Test system: human acute mononuclear granulocyte leukaemia (THP-1)
# Test: Cytotoxicity, MTT assay, THP-1
# Assay type: cell-based
# Conditions: MTT, 24 h
# Description: as §1, §2
row,Compound,IC50
1,CN1CC(=Cc2cccc(N=Cc3cc([N+](=O)[O-])ccc3F)c2)C(=O)C(=Cc2ccccc2F)C1 [Compound 97],8.1 ± 0.4 µM
2,CN1CC(=Cc2cccc(N=Cc3cc(F)ccc3O)c2)C(=O)C(=Cc2ccccc2F)C1 [Compound 93],2.4 ± 0.5 µM
3,CN1CC(=Cc2cccc(N=Cc3cc(O)ccc3O)c2)C(=O)C(=Cc2ccccc2F)C1 [Compound 99],7.8 ± 0.4 µM
4,COc1ccccc1/C=C1\CN(C)C/C(=C\c2cc(OC)c(OC)c(OC)c2)C1=O [Compound 89],7.9 ± 0.3 µM

# Same assay, conditions: quotient of IC50 towards LO2 cells
row,Compound,THP-1 SI (selectivity index)
1,CN1CC(=Cc2cccc(N=Cc3cc([N+](=O)[O-])ccc3F)c2)C(=O)C(=Cc2ccccc2F)C1 [Compound 97],1.5
2,CN1CC(=Cc2cccc(N=Cc3cc(F)ccc3O)c2)C(=O)C(=Cc2ccccc2F)C1 [Compound 93],6.3
3,CN1CC(=Cc2cccc(N=Cc3cc(O)ccc3O)c2)C(=O)C(=Cc2ccccc2F)C1 [Compound 99],2.0
4,COc1ccccc1/C=C1\CN(C)C/C(=C\c2cc(OC)c(OC)c(OC)c2)C1=O [Compound 89],1.7

# Test system: TNF-α production in LPS-stimulated RAW264.7 cells
# Test: TNF-α production in LPS-stimulated RAW264.7 cells, ELISA
# Assay type: cell-based
# Conditions: BAPs 6.0 μM, PDTC 30 μM, LPS 1.0 μg/mL
# Procedure: The anti-inflammatory activities of BAPs were evaluated by ELISA. After pretreated with 30 μM of positive drug pyrrolidinedithiocarbamate (PDTC) or 6 μM of BAPs for 2 h, cells were treated with LPS (1.0 μg/mL) for 22 h. The culture media were collected and centrifuged for detecting the expression levels of TNF-α by an ELISA kit (eBioScience, San Diego, CA).
# TNF-α is a common pro-inflammatory factors that can be produced by LPS-stimulated RAW264.7 macrophage[14]^,[24]. In order to evaluate the anti-inflammatory activity of BAPs, the effect of BAPs on TNF-α production in LPS-stimulated RAW264.7 cells was detected by ELISA. […] Only 92 presented slightly lower expression of TNF-α secretion (about 57%).
Compound,TNF-α secretion,Inhibition of TNF-α secretion compared with PDTC (in words)
CN1CC(=Cc2cccc(N=Cc3cc([N+](=O)[O-])ccc3F)c2)C(=O)C(=Cc2ccccc2F)C1 [Compound 97],45%,–
CN1CC(=Cc2cccc(N=Cc3cc(F)ccc3O)c2)C(=O)C(=Cc2ccccc2F)C1 [Compound 93],45%,superior to PDTC group

# Test system: human breast cancer cells (MCF-7)
# Test: Cytotoxicity, MTT assay, MCF-7
# Assay type: cell-based
# Conditions: MTT, 24 h
# Description: as §1, §2
row,Compound,IC50
1,CN1CC(=Cc2cccc(N=Cc3cc([N+](=O)[O-])ccc3F)c2)C(=O)C(=Cc2ccccc2F)C1 [Compound 97],10.7 ± 0.1 µM
2,CN1CC(=Cc2cccc(N=Cc3cc(F)ccc3O)c2)C(=O)C(=Cc2ccccc2F)C1 [Compound 93],3.8 ± 0.9 µM
3,CN1CC(=Cc2cccc(N=Cc3cc(O)ccc3O)c2)C(=O)C(=Cc2ccccc2F)C1 [Compound 99],5.9 ± 0.2 µM
4,COc1ccccc1/C=C1\CN(C)C/C(=C\c2cc(OC)c(OC)c(OC)c2)C1=O [Compound 89],9.7 ± 0.4 µM

# Same assay, conditions: quotient of IC50 towards LO2 cells
row,Compound,MCF-7 SI (selectivity index)
1,CN1CC(=Cc2cccc(N=Cc3cc([N+](=O)[O-])ccc3F)c2)C(=O)C(=Cc2ccccc2F)C1 [Compound 97],1.1
2,CN1CC(=Cc2cccc(N=Cc3cc(F)ccc3O)c2)C(=O)C(=Cc2ccccc2F)C1 [Compound 93],4.0
3,CN1CC(=Cc2cccc(N=Cc3cc(O)ccc3O)c2)C(=O)C(=Cc2ccccc2F)C1 [Compound 99],2.6
4,COc1ccccc1/C=C1\CN(C)C/C(=C\c2cc(OC)c(OC)c(OC)c2)C1=O [Compound 89],1.4

# Test system: human gastric adenocarcinoma cells (SGC7901)
# Test: Cytotoxicity, MTT assay, SGC7901
# Assay type: cell-based
# Conditions: MTT, 24 h
# Description: as §1, §2
row,Compound,IC50
1,CN1CC(=Cc2cccc(N=Cc3cc([N+](=O)[O-])ccc3F)c2)C(=O)C(=Cc2ccccc2F)C1 [Compound 97],3.4 ± 0.8 µM
2,CN1CC(=Cc2cccc(N=Cc3cc(F)ccc3O)c2)C(=O)C(=Cc2ccccc2F)C1 [Compound 93],2.8 ± 0.5 µM
3,CN1CC(=Cc2cccc(N=Cc3cc(O)ccc3O)c2)C(=O)C(=Cc2ccccc2F)C1 [Compound 99],4.7 ± 0.3 µM
4,COc1ccccc1/C=C1\CN(C)C/C(=C\c2cc(OC)c(OC)c(OC)c2)C1=O [Compound 89],3.3 ± 0.3 µM

# Same assay, conditions: quotient of IC50 towards LO2 cells
row,Compound,SGC7901 SI (selectivity index)
1,CN1CC(=Cc2cccc(N=Cc3cc([N+](=O)[O-])ccc3F)c2)C(=O)C(=Cc2ccccc2F)C1 [Compound 97],3.5
2,CN1CC(=Cc2cccc(N=Cc3cc(F)ccc3O)c2)C(=O)C(=Cc2ccccc2F)C1 [Compound 93],5.4
3,CN1CC(=Cc2cccc(N=Cc3cc(O)ccc3O)c2)C(=O)C(=Cc2ccccc2F)C1 [Compound 99],3.3
4,COc1ccccc1/C=C1\CN(C)C/C(=C\c2cc(OC)c(OC)c(OC)c2)C1=O [Compound 89],4.1

# Test system: human lung carcinoma cells (A549)
# Test: Cytotoxicity, MTT assay, A549
# Assay type: cell-based
# Conditions: MTT, 24 h
# Description: as §1, §2
row,Compound,IC50
1,CN1CC(=Cc2cccc(N=Cc3cc([N+](=O)[O-])ccc3F)c2)C(=O)C(=Cc2ccccc2F)C1 [Compound 97],5.7 ± 0.4 µM
2,CN1CC(=Cc2cccc(N=Cc3cc(F)ccc3O)c2)C(=O)C(=Cc2ccccc2F)C1 [Compound 93],3.7 ± 0.1 µM
3,CN1CC(=Cc2cccc(N=Cc3cc(O)ccc3O)c2)C(=O)C(=Cc2ccccc2F)C1 [Compound 99],4.4 ± 0.1 µM
4,COc1ccccc1/C=C1\CN(C)C/C(=C\c2cc(OC)c(OC)c(OC)c2)C1=O [Compound 89],4.9 ± 0.1 µM

# Same assay, conditions: quotient of IC50 towards LO2 cells
row,Compound,A549 SI (selectivity index)
1,CN1CC(=Cc2cccc(N=Cc3cc([N+](=O)[O-])ccc3F)c2)C(=O)C(=Cc2ccccc2F)C1 [Compound 97],2.1
2,CN1CC(=Cc2cccc(N=Cc3cc(F)ccc3O)c2)C(=O)C(=Cc2ccccc2F)C1 [Compound 93],4.1
3,CN1CC(=Cc2cccc(N=Cc3cc(O)ccc3O)c2)C(=O)C(=Cc2ccccc2F)C1 [Compound 99],3.5
4,COc1ccccc1/C=C1\CN(C)C/C(=C\c2cc(OC)c(OC)c(OC)c2)C1=O [Compound 89],2.8

# Test system: human normal hepatic cell line (LO2)
# Test: Toxicity to normal cells, MTT assay, LO2
# Assay type: cell-based
# Conditions: 24 h
# Description: as §1, §2
row,Compound,IC50
1,CN1CC(=Cc2cccc(N=Cc3cc([N+](=O)[O-])ccc3F)c2)C(=O)C(=Cc2ccccc2F)C1 [Compound 97],11.8 ± 0.4 µM
2,CN1CC(=Cc2cccc(N=Cc3cc(F)ccc3O)c2)C(=O)C(=Cc2ccccc2F)C1 [Compound 93],15.1 ± 0.7 µM
3,CN1CC(=Cc2cccc(N=Cc3cc(O)ccc3O)c2)C(=O)C(=Cc2ccccc2F)C1 [Compound 99],15.6 ± 0.4 µM
4,COc1ccccc1/C=C1\CN(C)C/C(=C\c2cc(OC)c(OC)c(OC)c2)C1=O [Compound 89],13.6 ± 0.1 µM

# Test system: human colon cancer cells (HCT116)
# Test: Cytotoxicity, MTT assay, HCT116
# Assay type: cell-based
# Conditions: MTT, 24 h
# Description: as §1, §2
row,Compound,IC50
1,CN1CC(=Cc2cccc(N=Cc3cc([N+](=O)[O-])ccc3F)c2)C(=O)C(=Cc2ccccc2F)C1 [Compound 97],11.7 ± 0.2 µM
2,CN1CC(=Cc2cccc(N=Cc3cc(F)ccc3O)c2)C(=O)C(=Cc2ccccc2F)C1 [Compound 93],2.5 ± 1.8 µM
3,CN1CC(=Cc2cccc(N=Cc3cc(O)ccc3O)c2)C(=O)C(=Cc2ccccc2F)C1 [Compound 99],7.42 ± 0.1 µM
4,COc1ccccc1/C=C1\CN(C)C/C(=C\c2cc(OC)c(OC)c(OC)c2)C1=O [Compound 89],5.6 ± 0.1 µM

# Same assay, conditions: quotient of IC50 towards LO2 cells
row,Compound,HCT116 SI (selectivity index)
1,CN1CC(=Cc2cccc(N=Cc3cc([N+](=O)[O-])ccc3F)c2)C(=O)C(=Cc2ccccc2F)C1 [Compound 97],1.0
2,CN1CC(=Cc2cccc(N=Cc3cc(F)ccc3O)c2)C(=O)C(=Cc2ccccc2F)C1 [Compound 93],6.0
3,CN1CC(=Cc2cccc(N=Cc3cc(O)ccc3O)c2)C(=O)C(=Cc2ccccc2F)C1 [Compound 99],2.1
4,COc1ccccc1/C=C1\CN(C)C/C(=C\c2cc(OC)c(OC)c(OC)c2)C1=O [Compound 89],2.4
